Blank lines part the entries; values can stand above or below the compound they belong to.
Legend:
MMP-13 = target: T1, MMP-13 (Homo sapiens, UniProt P45452); test: Enzyme inhibiting activity of MMPs (fluorogenic peptide substrate), MMP-13; format: biochemical; settings: human MMP-13, proenzyme activated with APMA; substrate MOCAc-Pro-Leu-Gly-Leu-A2Pr(DNP)-Ala-Arg-NH2
T1 construct: purchased Calbiochem (EMD/MERCK Biosciences)
Description: (§1) Various human MMPs (MMP-2, MMP-9 and MMP-13) were purchased from Calbiochem (EMD/MERCK Biosciences).
Since the purchased MMP-13 was Proenzyme, the activated one was used, which was incubated at 37° C. for 2 hours after the successive addition of an assay buffer (containing 50 mM Tris-HCl (pH7.6), 0.3 M NaCl, 10 mM CaCl2, 0.005% Brij35) and APMA (final concentration 1 mM) to the enzyme solution.
(§2) The enzyme activity of MMPs was measured according to the method described in C. Graham Knight, Frances Willenbrock and Gillian Murphy: A novel coumarin-labelled peptide for sensitive continuous assays of the matrix metalloproteinases: FEBS LETT., 296, (1992), 263-266. As a substrate, MOCAc-Pro-Leu-Gly-Leu-A2Pr(DNP)-Ala-Arg-NH2 (Peptide Institute, Inc. Osaka, Japan) was used, and the following four assays are performed per compound (inhibitor) for measuring the inhibiting activity.
(§3) (A) Substrate (synthetic substrate), enzyme (MMPs), inhibitor (B) Substrate (synthetic substrate), inhibitor (C) Substrate (synthetic substrate), enzyme (MMPs) (D) Substrate (synthetic substrate) In each assay, the fluorescent intensity was measured, and inhibition (%) was calculated by the following equation.
(§4) Inhibition(%)=[I−(A−B)/(C−D)]×100
(§5) IC50 indicates a concentration at which inhibition (%) is 50%.

MMP-2 = target: T2, MMP-2 (Homo sapiens, UniProt P08253); test: Enzyme inhibiting activity of MMPs (fluorogenic peptide substrate), MMP-2; format: biochemical; settings: human MMP-2; substrate MOCAc-Pro-Leu-Gly-Leu-A2Pr(DNP)-Ala-Arg-NH2
T2 construct: purchased Calbiochem (EMD/MERCK Biosciences)
T2 sequence (P08253 110-660): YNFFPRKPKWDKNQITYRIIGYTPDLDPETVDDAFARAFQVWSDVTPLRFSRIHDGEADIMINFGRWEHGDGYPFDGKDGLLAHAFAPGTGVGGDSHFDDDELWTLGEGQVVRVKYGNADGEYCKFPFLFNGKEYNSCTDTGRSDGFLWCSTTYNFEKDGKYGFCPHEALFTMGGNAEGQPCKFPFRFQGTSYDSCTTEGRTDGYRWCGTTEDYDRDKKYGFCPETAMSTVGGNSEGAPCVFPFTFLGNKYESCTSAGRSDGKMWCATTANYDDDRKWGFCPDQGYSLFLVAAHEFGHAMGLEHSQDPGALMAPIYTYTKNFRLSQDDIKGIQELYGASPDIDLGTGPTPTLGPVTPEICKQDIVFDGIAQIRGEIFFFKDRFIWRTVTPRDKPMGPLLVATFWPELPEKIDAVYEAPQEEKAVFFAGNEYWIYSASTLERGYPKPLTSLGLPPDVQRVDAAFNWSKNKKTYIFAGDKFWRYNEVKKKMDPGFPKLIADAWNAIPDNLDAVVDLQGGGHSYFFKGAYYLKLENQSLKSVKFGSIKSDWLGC
Description: as §1, §2, §3, §4, §5

MMP-9 = target: T3, MMP-9 (Homo sapiens, UniProt P14780); test: Enzyme inhibiting activity of MMPs (fluorogenic peptide substrate), MMP-9; format: biochemical; settings: human MMP-9; substrate MOCAc-Pro-Leu-Gly-Leu-A2Pr(DNP)-Ala-Arg-NH2
T3 construct: purchased Calbiochem (EMD/MERCK Biosciences)
Description: as §1, §2, §3, §4, §5

T3 sequence (P14780 94-707): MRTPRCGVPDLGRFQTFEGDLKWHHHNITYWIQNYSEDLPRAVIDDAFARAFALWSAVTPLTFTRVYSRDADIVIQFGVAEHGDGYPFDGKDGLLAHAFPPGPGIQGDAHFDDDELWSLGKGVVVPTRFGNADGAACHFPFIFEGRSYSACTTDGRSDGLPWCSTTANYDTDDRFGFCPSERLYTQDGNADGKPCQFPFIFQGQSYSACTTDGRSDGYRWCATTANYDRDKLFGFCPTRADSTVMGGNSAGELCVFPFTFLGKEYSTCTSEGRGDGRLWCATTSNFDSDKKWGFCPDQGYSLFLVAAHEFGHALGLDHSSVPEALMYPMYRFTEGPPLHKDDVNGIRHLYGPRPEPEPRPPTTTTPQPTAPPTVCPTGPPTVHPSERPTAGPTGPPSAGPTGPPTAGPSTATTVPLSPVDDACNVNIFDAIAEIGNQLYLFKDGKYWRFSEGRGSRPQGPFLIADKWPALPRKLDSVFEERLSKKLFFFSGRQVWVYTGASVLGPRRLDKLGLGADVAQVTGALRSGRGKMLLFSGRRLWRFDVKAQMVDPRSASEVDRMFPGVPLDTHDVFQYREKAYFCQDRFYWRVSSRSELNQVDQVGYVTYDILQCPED

- IC50 (MMP-13): 0.145 µM
- IC50 (MMP-2): > 10 µM
- IC50 (MMP-9): > 10 µM
SMILES: CCC[C@H](NS(=O)(=O)N1CCC(c2ccc(/C=C/c3ccc4ccccc4c3)cc2)CC1)C(=O)O [Compound I-25]

- IC50 (MMP-13): 0.0423 µM
- IC50 (MMP-2): > 10 µM
- IC50 (MMP-9): > 10 µM
SMILES: CCOc1ccc2cc(C#Cc3ccc(N4CCN(S(=O)(=O)N[C@H](C)C(=O)O)CC4)cc3)ccc2c1 [Compound I-27, (R)-2-{4-[4-(6-ethoxy-naphthalen-2-ylethynyl)-phenyl]-piperazine-1-sulfonylamino)-propionic acid]

- IC50 (MMP-13): 0.121 µM
- IC50 (MMP-2): > 10 µM
- IC50 (MMP-9): > 10 µM
- melting point: 187 to 190 °C (dec.)
SMILES: CCC[C@H](NS(=O)(=O)N1CCN(c2ccc(C#Cc3ccc4cc(OC)ccc4c3)cc2)CC1)C(=O)O [Compound I-1, (S)-2-{4-[4-(6-methoxy-naphthalen-2-ylethynyl)-phenyl]-piperazine-1-sulfonylamino}-pentanoic acid]

- IC50 (MMP-13): 0.0685 µM
- IC50 (MMP-2): 1 to 10 µM
- IC50 (MMP-9): > 10 µM
SMILES: C[C@@H](NS(=O)(=O)N1CCN(c2ccc(C#Cc3ccc4cc(OCC5CC5)ccc4c3)cc2)CC1)C(=O)O [Compound I-32, (R)-2-{4-[4-(6-cyclopropylmethoxy-naphthalen-2-ylethynyl)-phenyl]-piperazine-1-sulfonylamino)-propionic acid]

- IC50 (MMP-13): 0.131 µM
- IC50 (MMP-2): > 10 µM
- IC50 (MMP-9): > 10 µM
SMILES: COc1ccc2cc(C#Cc3ccc(N4CCN(S(=O)(=O)N[C@H](C)C(=O)O)C(C)C4)cc3)ccc2c1 (some centres unmarked) [Compound I-47]

- IC50 (MMP-13): 0.107 µM
- IC50 (MMP-2): 1 to 10 µM
- IC50 (MMP-9): > 10 µM
SMILES: COc1ccc2cc(C#Cc3ccc(N4CCN(S(=O)(=O)N[C@H](C)C(=O)O)C[C@@H]4C)cc3)ccc2c1 [Compound I-53]

- IC50 (MMP-13): 0.176 µM
- IC50 (MMP-2): > 10 µM
- IC50 (MMP-9): > 10 µM
SMILES: COc1ccc2cc(/C=C/c3ccc(N4CCN(S(=O)(=O)N[C@@H](C)C(=O)O)CC4)cc3)ccc2c1 [Compound I-21, (S)-2-(4-{4-[(E)-2-(6-methoxy-naphthalen-2-yl)-vinyl]-phenyl}-piperazine-1-sulfonylamino}-propionic acid]

The remaining lines, values behind:

SMILES: COc1ccc2cc(COc3ccc(C4CCN(S(=O)(=O)NC(C)C(=O)O)CC4)cc3)ccc2c1 (centres unmarked) [Compound I-19]
- IC50 (MMP-13): 0.142 µM
- IC50 (MMP-2): > 10 µM
- IC50 (MMP-9): > 10 µM

SMILES: CCC[C@H](NS(=O)(=O)N1CCC(c2ccc(CCc3ccc4cc(OC)ccc4c3)cc2)CC1)C(=O)O [Compound I-20, (S)-2-(4-{4-[2-(6-methoxy-naphthalen-2-yl)-ethyl]-phenyl}-piperidine-1-sulfonylamino]-pentanoic acid]
- IC50 (MMP-13): 0.0945 µM
- IC50 (MMP-2): 1 to 10 µM
- IC50 (MMP-9): > 10 µM

SMILES: CCC[C@H](NS(=O)(=O)N1CCN(c2ccc(/C=C/c3ccc4ccccc4c3)cc2)CC1)C(=O)O [Compound I-13]
- IC50 (MMP-13): 0.0443 µM
- IC50 (MMP-2): > 10 µM
- IC50 (MMP-9): > 10 µM

SMILES: COc1ccc2cc(COc3ccc(N4CCN(S(=O)(=O)N[C@@H](C)C(=O)O)CC4)cc3)ccc2c1 [Compound I-15, (S)-2-{4-[4-(6-methoxy-naphthalen-2-ylmethoxy)-phenyl]-piperazine-1-sulfonylamino}-propionic acid]
- IC50 (MMP-13): 0.126 µM
- IC50 (MMP-2): 1 to 10 µM
- IC50 (MMP-9): > 10 µM

SMILES: CCC[C@H](NS(=O)(=O)N1CCC(c2ccc(C=Cc3ccc4cc(OC)ccc4c3)cc2)CC1)C(=O)O [Compound I-24, (S)-2-(4-{4-[(A)-2-(6-methoxy-naphthalen-2-yl)-vinyl]-phenyl)-piperidine-1-sulfonylamino}-pentanoic acid]
- IC50 (MMP-13): 0.138 µM
- IC50 (MMP-2): > 10 µM
- IC50 (MMP-9): > 10 µM

SMILES: COc1ccc2cc(C#Cc3ccc(N4CCN(S(=O)(=O)N[C@H](C(=O)O)C(C)C)CC4)cc3)ccc2c1 [Compound I-5, (S)-2-{4-[4-(6-methoxy-naphthalen-2-ylethynyl)-phenyl]-piperazine-1-sulfonylamino}-3-methyl-butanoic acid]
- IC50 (MMP-13): 0.11 µM
- IC50 (MMP-2): > 10 µM
- IC50 (MMP-9): > 10 µM

SMILES: COc1ccc2cc(CNc3ccc(N4CCN(S(=O)(=O)N[C@H](C)C(=O)O)CC4)cc3)ccc2c1 [Compound I-45, (R)-2-(4-{4-[4-(6-methoxy-naphthalen-2-ylmethyl)-amino]-phenyl}-piperazine-1-sulfonylamino)-propionic acid]
- IC50 (MMP-13): 0.186 µM
- IC50 (MMP-2): 1 to 10 µM
- IC50 (MMP-9): > 10 µM

SMILES: CCC[C@H](NS(=O)(=O)N1CCN(c2ccc(/C=C/c3ccc4cc(OCOC)ccc4c3)cc2)CC1)C(=O)O [Compound I-49, (S)-2-(4-{4-[(E)-2-(6-methoxymethoxy-naphthalen-2-yl)-vinyl]-phenyl}-piperazine-1-sulfonylamino)-pentanoic acid]
- IC50 (MMP-13): 0.0965 µM
- IC50 (MMP-2): 1 to 10 µM
- IC50 (MMP-9): > 10 µM

SMILES: CON=Cc1ccc2cc(C#Cc3ccc(N4CCN(S(=O)(=O)N[C@H](C)C(=O)O)CC4)cc3)ccc2c1 [Compound I-66, (R)-2-(4-{4-[6-(methoxyimino-methyl)-naphthalen-2-ylethynyl]-phenyl)-piperazine-1-sulfonylamino]-propionic acid]
- IC50 (MMP-13): 0.0396 µM
- IC50 (MMP-2): > 10 µM
- IC50 (MMP-9): > 10 µM

SMILES: C[C@@H](NS(=O)(=O)N1CCN(c2ccc(OCc3ccc4ccccc4c3)cc2)CC1)C(=O)O [Compound I-2, (R)-2-{4-[4-(naphthalen-2-ylmethoxy)-phenyl]-piperazine-1-sulfonylamino}-propionic acid]
- melting point: 167 to 171 °C

SMILES: CCC[C@H](NS(=O)(=O)N1CCN(c2ccc(C#Cc3ccc4cc(OCC)ccc4c3)cc2)CC1)C(=O)O [Compound I-28, (S)-2-{4-[4-(6-ethoxy-naphthalen-2-ylethynyl)-phenyl]-piperazine-1-sulfonylamino)-pentanoic acid]
- IC50 (MMP-13): 0.0771 µM
- IC50 (MMP-2): > 10 µM
- IC50 (MMP-9): > 10 µM

SMILES: COc1ccc2cc(C#Cc3ccc(C4CCN(S(=O)(=O)N[C@H](C)C(=O)O)CC4)cc3)ccc2c1 [Compound I-11, (R)-2-{4-[4-(6-methoxy-naphthalen-2-ylethynyl)-phenyl]-piperidine-1-sulfonylamino}-propionic acid]
- IC50 (MMP-13): 0.0549 µM
- IC50 (MMP-2): > 10 µM
- IC50 (MMP-9): > 10 µM

From patent US20090069304A1, “MMP-13 SELECTIVE INHIBITOR” (SHIONOGI & CO., LTD., priority 2006, published 2009)
